Laboratory results: patent publication US20090022729A1, “METHODS AND COMPOSITIONS FOR TREATING CARDIAC DYSFUNCTIONS” (priority 2007, published 2009)

Tests used:
thrombin [1] = molecular target: T1, thrombin (Mus musculus, UniProt P19221); assay: short-term cardiac I/R injury model (30 minutes of ischemia and 2 hours of reperfusion); type: in vivo; settings: WT mice, hirudin vs saline, FIG. 1A
T1 construct: from tissue; host or cells: wild-type mice in vivo (blood / injured myocardium)
Protocol: Cardiac I/R injury models. For the short-term I/R model (30 minutes of ischemia and 2 hours of reperfusion), the surgical protocol and infarct size determination were performed as described in Palazzo et al. (Am. J. Physiol. 275:H2300-H2307 (1998)) with some modifications. Briefly, intraperitoneal injection of pentobarbital (100 mg/kg) (Abbott Laboratories, Abbott Park, Ill.) was used for anesthesia. Mice were orally intubated to provide artificial ventilation (0.3 mL tidal volume, 120 breaths/minute). The left anterior descending coronary artery was occluded with a 7-0 silk suture (U.S. Surgical Corp., Norwalk, Conn.) passed through PE tubing (U.S. Surgical Corp.) to make a Rumel snare. After 30 minutes of ischemia, the snare was released and the heart was reperfused for 2 hours. Finally, the artery was reoccluded and 4% Evans Blue dye was injected into the aortic root to delineate the area-at-risk (AAR) from not at-risk myocardium (blue). […] The LV, AAR and infarct areas were traced and calculated by computer planimetry (Image J, version 1.21). Infarct volumes were calculated as: [(A1×W1)+(A2×W2)+(A3×W3)+(A4×W4)+(A5×W5)], where A is the area of infarct for the slice denoted by the subscript and W is the weight of the respective section.

PAR-1 [2] = molecular target: T2, PAR-1 (Homo sapiens, UniProt P25116); settings: cited from earlier work
T2 sequence (P25116 22-425): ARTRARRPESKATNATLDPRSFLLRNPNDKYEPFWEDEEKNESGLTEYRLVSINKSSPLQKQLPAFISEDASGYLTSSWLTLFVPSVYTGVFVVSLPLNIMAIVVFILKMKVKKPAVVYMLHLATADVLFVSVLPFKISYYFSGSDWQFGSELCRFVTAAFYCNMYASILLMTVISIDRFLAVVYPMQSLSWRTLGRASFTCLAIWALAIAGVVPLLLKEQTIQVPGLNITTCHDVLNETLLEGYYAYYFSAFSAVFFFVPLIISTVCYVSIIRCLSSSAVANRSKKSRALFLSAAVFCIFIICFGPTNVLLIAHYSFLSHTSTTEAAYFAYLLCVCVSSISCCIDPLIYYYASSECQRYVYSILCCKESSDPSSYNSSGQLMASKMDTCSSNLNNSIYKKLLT

PAR-1 [3] = molecular target: T2, PAR-1; settings: cited from earlier work; remark: listed apart in the source
PAR2 = molecular target: T3, PAR2 (Homo sapiens, UniProt P55085); settings: cited from earlier work
T3 sequence (P55085 26-397): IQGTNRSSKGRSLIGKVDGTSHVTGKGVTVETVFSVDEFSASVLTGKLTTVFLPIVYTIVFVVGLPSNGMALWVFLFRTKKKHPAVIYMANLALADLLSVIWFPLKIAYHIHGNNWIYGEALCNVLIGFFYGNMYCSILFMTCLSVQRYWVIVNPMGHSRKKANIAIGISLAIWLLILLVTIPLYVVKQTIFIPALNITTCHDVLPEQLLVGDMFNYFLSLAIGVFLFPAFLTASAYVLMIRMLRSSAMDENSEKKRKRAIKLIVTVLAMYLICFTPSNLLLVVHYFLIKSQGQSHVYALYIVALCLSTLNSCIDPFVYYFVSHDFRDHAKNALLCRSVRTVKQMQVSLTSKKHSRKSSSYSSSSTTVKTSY

PAR3 = molecular target: T4, PAR3 (Homo sapiens, UniProt O00254); settings: cited from earlier work
T4 sequence (O00254 22-374): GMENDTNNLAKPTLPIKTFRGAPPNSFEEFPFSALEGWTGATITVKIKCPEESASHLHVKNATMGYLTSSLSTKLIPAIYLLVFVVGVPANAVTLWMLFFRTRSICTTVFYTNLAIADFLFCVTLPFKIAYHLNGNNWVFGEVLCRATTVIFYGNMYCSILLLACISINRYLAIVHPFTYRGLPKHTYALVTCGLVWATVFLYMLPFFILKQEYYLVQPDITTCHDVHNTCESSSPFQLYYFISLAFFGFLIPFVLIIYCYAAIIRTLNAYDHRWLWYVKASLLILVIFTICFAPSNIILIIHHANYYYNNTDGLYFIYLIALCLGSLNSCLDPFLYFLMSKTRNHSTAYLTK

PAR4 = molecular target: T5, PAR4 (Homo sapiens, UniProt Q96RI0); settings: cited from earlier work
T5 sequence (Q96RI0 18-385): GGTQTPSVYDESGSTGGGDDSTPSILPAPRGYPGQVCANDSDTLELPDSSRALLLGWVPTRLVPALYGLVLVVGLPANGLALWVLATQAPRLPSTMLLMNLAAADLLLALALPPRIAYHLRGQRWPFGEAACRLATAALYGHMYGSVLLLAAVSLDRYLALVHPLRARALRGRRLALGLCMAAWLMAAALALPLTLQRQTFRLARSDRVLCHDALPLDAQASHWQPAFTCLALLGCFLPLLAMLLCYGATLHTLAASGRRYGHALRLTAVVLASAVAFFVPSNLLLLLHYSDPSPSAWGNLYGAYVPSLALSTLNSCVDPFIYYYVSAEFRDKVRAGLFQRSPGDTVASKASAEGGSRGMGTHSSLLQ

thrombin [4] = molecular target: thrombin (Homo sapiens, UniProt P00734); settings: cited from earlier work

Compound	infarct size (thrombin [1])	size of the area at-risk (thrombin [1])	PAR1 antagonist activity and selectivity (PAR-1 [2])	calcium mobilization (PAR-1 [3])	effect on PAR2 (PAR2)	effect on PAR3 (PAR3)	effect on PAR4 (PAR4)	inhibition of thrombin activity (thrombin [4])
hirudin	decreased	Neither hirudin treatment nor PAR1 deficiency affected						
NCC[C@H](NC(=O)[C@H](Cc1ccc(F)c(F)c1)NC(=O)Nc1ccc2c(CN3CCCC3)cn(Cc3c(Cl)cccc3Cl)c2c1)C(=O)NCc1ccccc1 [RWJ-56110, (αS)—N-[(1S)-3-amino-1-[[(phenylmethyl)amino]carbonyl]propyl]-α-[[[[[1-(2,6-dichlorophenyl)methyl]-3-(1-pyrrolidinylmethyl)-1H-indol-6-yl]amino]carbonyl]amino]-3,4-difluorobenzenepropanamide]			potent, selective PAR-1 antagonist	interferes with calcium mobilization	does not affect	does not affect	does not affect	does not affect PAR2, PAR3, or PAR4 or inhibit thrombin activity
